Measured values from ChEMBL document CHEMBL1154225, “Design and synthesis of bile acid-based amino sterols as antimicrobial agents” (Bioorg Med Chem Lett, 2009).
≈ marks a conversion by molar mass, not a printed value.

Columns and labels:
Type in all cases: functional, organism-based
[1] = tested on: Klebsiella pneumoniae; assay: Antibacterial activity against Klebsiella pneumoniae ATCC 27736 after 24 hrs by NCCLS method
[2] = tested on: Staphylococcus aureus; assay: Antibacterial activity against Staphylococcus aureus ATCC 25923 after 24 hrs by NCCLS method
[3] = tested on: Escherichia coli; assay: Antibacterial activity against Escherichia coli ATCC 9637 after 24 hrs by NCCLS method
[4] = tested on: Pseudomonas aeruginosa; assay: Antibacterial activity against Pseudomonas aeruginosa ATCC BAA-427 after 24 hrs by NCCLS method
[5] = tested on: Candida parapsilosis; assay: Antifungal activity against Candida parapsilosis ATCC 22019 after 48 hrs by microbroth dilution technique; conditions: Lodderomyces parapsilosis, ATCC 22019, 48 h
[6] = tested on: Trichophyton mentagrophytes; assay: Antifungal activity against Trichophyton mentagrophytes after 96 hrs by microbroth dilution technique
[7] = tested on: Cryptococcus neoformans; assay: Antifungal activity against Cryptococcus neoformans after 72 hrs by microbroth dilution technique
[8] = tested on: Sporothrix schenckii; assay: Antifungal activity against Sporothrix schenckii after 72 hrs by microbroth dilution technique
[9] = tested on: Aspergillus fumigatus; assay: Antifungal activity against Aspergillus fumigatus AF-27 after 72 hrs by microbroth dilution technique; conditions: AF-27, 72 h
[10] = tested on: Candida albicans; assay: Antifungal activity against Candida albicans after 48 hrs by microbroth dilution technique
[11] = Escherichia coli, ATCC 9637, 24 h
[12] = Pseudomonas aeruginosa, ATCC BAA-427, 24 h
[13] = Klebsiella pneumoniae, ATCC 27736, 24 h
[14] = Escherichia coli, ATCC 9637, 24 h, read-out: IC50
[15] = Pseudomonas aeruginosa, ATCC BAA-427, 24 h, read-out: IC50
[16] = Klebsiella pneumoniae, ATCC 27736, 24 h, read-out: IC50

## GENTAMICIN
[1]
  MIC: 0.78 µg/mL
[2]
  MIC: 6.25 µg/mL
[3]
  MIC: 0.18 µg/mL
[4]
  MIC: 25 µg/mL

## COC(=O)CC[C@@H](C)[C@H]1CC[C@H]2[C@@H]3CC[C@@H]4C[C@](O)(CN=[N+]=[N-])CC[C@]4(C)[C@H]3C[C@H](O)[C@]12C
[5]
  MIC: > 50 µg/mL
[6]
  MIC: > 50 µg/mL
[7]
  MIC: > 50 µg/mL
[8]
  MIC: > 50 µg/mL
[9]
  MIC: > 50 µg/mL
[2]; ATCC 25923, 24 h
  MIC: > 50 µg/mL
[10]
  MIC: > 50 µg/mL
[3]; [11]
  MIC: > 50 µg/mL
[4]; [12]
  MIC: > 50 µg/mL

## COC(=O)CC[C@@H](C)[C@H]1CC[C@H]2[C@@H]3CC[C@@H]4C[C@](O)(CN)CC[C@]4(C)[C@H]3C[C@H](O)[C@]12C
[5]
  IC50: > 50 µg/mL
  MIC: > 50 µg/mL
[6]
  IC50: 24.9 µg/mL (≈ 57.1 µM)
  MIC: 25 µg/mL (≈ 57.4 µM)
[7]
  IC50: 50 µg/mL (≈ 115 µM)
  MIC: 50 µg/mL (≈ 115 µM)
[8]
  IC50: 12.6 µg/mL (≈ 29 µM)
  MIC: 25 µg/mL (≈ 57.4 µM)
[9]
  IC50: 50 µg/mL (≈ 115 µM)
  MIC: 50 µg/mL (≈ 115 µM)
[1]
  IC50: Not Active
[1]; [13]
  MIC: 50 µg/mL (≈ 115 µM)
[2]; ATCC 25923, 24 h
  IC50: 14.6 µg/mL (≈ 33.4 µM)
  MIC: 25 µg/mL (≈ 57.4 µM)
[10]
  IC50: 50 µg/mL (≈ 115 µM)
  MIC: 50 µg/mL (≈ 115 µM)
[3]; [11]
  MIC: > 50 µg/mL
[3]; [14]
  IC50: > 50 µg/mL
[4]; [12]
  MIC: > 50 µg/mL
[4]; [15]
  IC50: > 50 µg/mL

## COC(=O)CC[C@@H](C)[C@H]1CC[C@H]2[C@@H]3CC[C@@H]4C[C@](O)(CNCCN)CC[C@]4(C)[C@H]3C[C@H](O)[C@]12C
[5]
  IC50: 18.4 µg/mL (≈ 38.4 µM)
  MIC: 25 µg/mL (≈ 52.2 µM)
[6]
  IC50: 6.25 µg/mL (≈ 13.1 µM)
  MIC: 6.25 µg/mL (≈ 13.1 µM)
[7]
  IC50: 17.2 µg/mL (≈ 36 µM)
  MIC: 25 µg/mL (≈ 52.2 µM)
[8]
  IC50: 3.36 µg/mL (≈ 7.02 µM)
  MIC: 12.5 µg/mL (≈ 26.1 µM)
[9]
  IC50: 8.14 µg/mL (≈ 17 µM)
  MIC: 12.5 µg/mL (≈ 26.1 µM)
[1]; [13]
  MIC: 6.25 µg/mL (≈ 13.1 µM)
[1]; [16]
  IC50: 5.21 µg/mL (≈ 10.9 µM)
[2]; ATCC 25923, 24 h
  IC50: 5.14 µg/mL (≈ 10.7 µM)
  MIC: 6.25 µg/mL (≈ 13.1 µM)
[10]
  IC50: 25 µg/mL (≈ 52.3 µM)
  MIC: > 50 µg/mL
[3]
  IC50: Not Active
[3]; [11]
  MIC: 50 µg/mL (≈ 104 µM)
[4]
  IC50: Not Active
[4]; [12]
  MIC: 50 µg/mL (≈ 104 µM)

## COC(=O)CC[C@@H](C)[C@H]1CC[C@H]2[C@@H]3[C@H](O)C[C@@H]4C[C@](O)(CN)CC[C@]4(C)[C@H]3C[C@H](O)[C@]12C
[5]
  IC50: > 50 µg/mL
  MIC: > 50 µg/mL
[6]
  IC50: 21.4 µg/mL (≈ 47.4 µM)
  MIC: 25 µg/mL (≈ 55.4 µM)
[7]
  IC50: > 50 µg/mL
  MIC: > 50 µg/mL
[8]
  IC50: 50 µg/mL (≈ 111 µM)
  MIC: 50 µg/mL (≈ 111 µM)
[9]
  IC50: > 50 µg/mL
  MIC: > 50 µg/mL
[1]; [13]
  MIC: 25 µg/mL (≈ 55.4 µM)
[1]; [16]
  IC50: 18.4 µg/mL (≈ 40.8 µM)
[2]; ATCC 25923, 24 h
  IC50: 18.4 µg/mL (≈ 40.8 µM)
  MIC: 25 µg/mL (≈ 55.4 µM)
[10]
  IC50: > 50 µg/mL
  MIC: 50 µg/mL (≈ 111 µM)
[3]; [11]
  MIC: > 50 µg/mL
[3]; [14]
  IC50: > 50 µg/mL
[4]; [12]
  MIC: > 50 µg/mL
[4]; [15]
  IC50: > 50 µg/mL

## COC(=O)CC[C@@H](C)[C@H]1CC[C@H]2[C@@H]3[C@H](O)C[C@@H]4C[C@](O)(CN=[N+]=[N-])CC[C@]4(C)[C@H]3C[C@H](O)[C@]12C
[5]
  MIC: > 50 µg/mL
[6]
  MIC: > 50 µg/mL
[7]
  MIC: > 50 µg/mL
[8]
  MIC: > 50 µg/mL
[9]
  MIC: > 50 µg/mL
[2]; ATCC 25923, 24 h
  MIC: > 50 µg/mL
[10]
  MIC: > 50 µg/mL
[3]; [11]
  MIC: > 50 µg/mL
[4]; [12]
  MIC: > 50 µg/mL

## COC(=O)CC[C@@H](C)[C@H]1CC[C@H]2[C@@H]3CC[C@@H]4C[C@H](O)CC[C@]4(C)[C@H]3C[C@H](O)[C@]12C [METHYL DEOXYCHOLATE]
[5]
  MIC: > 50 µg/mL
[6]
  MIC: > 50 µg/mL
[7]
  MIC: > 50 µg/mL
[8]
  MIC: > 50 µg/mL
[9]
  MIC: > 50 µg/mL
[2]; ATCC 25923, 24 h
  MIC: > 50 µg/mL
[10]
  MIC: > 50 µg/mL
[3]; [11]
  MIC: > 50 µg/mL
[4]; [12]
  MIC: > 50 µg/mL

## OC(Cn1cncn1)(Cn1cncn1)c1ccc(F)cc1F [FLUCONAZOLE]
[5]
  MIC: 1 µg/mL (≈ 3.27 µM)
[6]
  MIC: 1 µg/mL (≈ 3.27 µM)
[7]
  MIC: 1.9 µg/mL (≈ 6.2 µM)
[8]
  MIC: 2 µg/mL (≈ 6.53 µM)
[9]
  MIC: 2 µg/mL (≈ 6.53 µM)
[10]
  MIC: 0.5 µg/mL (≈ 1.63 µM)

## COC(=O)CC[C@@H](C)[C@H]1CC[C@H]2[C@@H]3[C@H](O)C[C@@H]4C[C@H](O)CC[C@]4(C)[C@H]3C[C@H](O)[C@]12C [CHOLIC ACID, METHYL ESTER]
[5]
  MIC: > 50 µg/mL
[6]
  MIC: > 50 µg/mL
[7]
  MIC: > 50 µg/mL
[8]
  MIC: > 50 µg/mL
[9]
  MIC: > 50 µg/mL
[2]; ATCC 25923, 24 h
  MIC: > 50 µg/mL
[10]
  MIC: > 50 µg/mL
[3]; [11]
  MIC: > 50 µg/mL
[4]; [12]
  MIC: > 50 µg/mL

## COC(=O)CC[C@@H](C)[C@H]1CC[C@H]2[C@@H]3[C@H](O)C[C@@H]4C[C@](O)(CNCCN)CC[C@]4(C)[C@H]3C[C@H](O)[C@]12C
[5]
  IC50: 16.4 µg/mL (≈ 33.2 µM)
  MIC: 25 µg/mL (≈ 50.5 µM)
[6]
  IC50: 6.25 µg/mL (≈ 12.6 µM)
  MIC: 6.25 µg/mL (≈ 12.6 µM)
[7]
  IC50: 14.6 µg/mL (≈ 29.4 µM)
  MIC: 25 µg/mL (≈ 50.5 µM)
[8]
  IC50: 18.3 µg/mL (≈ 37 µM)
  MIC: 25 µg/mL (≈ 50.5 µM)
[9]
  IC50: 50 µg/mL (≈ 101 µM)
  MIC: 50 µg/mL (≈ 101 µM)
[1]; [13]
  MIC: 6.25 µg/mL (≈ 12.6 µM)
[1]; [16]
  IC50: 4.68 µg/mL (≈ 9.46 µM)
[2]; ATCC 25923, 24 h
  IC50: 4.12 µg/mL (≈ 8.33 µM)
  MIC: 6.25 µg/mL (≈ 12.6 µM)
[10]
  IC50: 24 µg/mL (≈ 48.6 µM)
  MIC: 25 µg/mL (≈ 50.5 µM)
[3]; [11]
  MIC: 25 µg/mL (≈ 50.5 µM)
[3]; [14]
  IC50: 17.2 µg/mL (≈ 34.8 µM)
[4]
  IC50: Not Active
[4]; [12]
  MIC: 50 µg/mL (≈ 101 µM)
